From patent US8906889B2, “C-3 cycloalkenyl triterpenoids with HIV maturation inhibitory activity” (priority 2012, dated 2014)
Where a name gives a salt, the structure may show the parent alone.

Test system: recombinant NL4-3 virus (Renilla luciferase, Gag P373S)
Assay: HIV cell culture assay (luciferase reporter, MT-2 cells)
Format: cell-based
Settings: Renilla, NL43, MT-2 cells infected for 4-5 days with NLRluc recombinants; luciferase activity
Protocol: MT-2 cells and 293T cells were obtained from the NIH AIDS Research and Reference Reagent Program. MT-2 cells were propagated in RPMI 1640 media supplemented with 10% heat inactivated fetal bovine serum, […]. The 293T cells were propagated in DMEM media supplemented with 10% heat inactivated fetal bovine serum (FBS), 100 units/ml penicillin G and 100 μg/ml streptomycin. The proviral DNA clone of NL4-3 was obtained from the NIH AIDS Research and Reference Reagent Program. A recombinant NL4-3 virus, in which a section of the nef gene from NL4-3 was replaced with the Renilla luciferase gene, was used as a reference virus. In addition, residue Gag P373 was converted to P373S. Briefly, the recombinant virus was prepared by transfection of the altered proviral clone of NL4-3. Transfections were performed in 293T cells using LipofectAMINE PLUS from Invitrogen (Carlsbad, Calif.), according to manufacturer's instruction. The virus was titered in MT-2 cells using luciferase enzyme activity as a marker. Luciferase was quantitated using the Dual Luciferase kit from Promega (Madison, Wis.), with modifications to the manufacturer's protocol. The diluted Passive Lysis solution was pre-mixed with the re-suspended Luciferase Assay Reagent and the re-suspended Stop & Glo Substrate (2:1:1 ratio). Fifty (50) μL of the mixture was added to each aspirated well on assay plates and luciferase activity was measured immediately on a Wallac TriLux (Perkin-Elmer). Antiviral activities of inhibitors toward the recombinant virus were quantified by measuring luciferase activity in cells infected for 4-5 days with NLRluc recombinants in the presence serial dilutions of the inhibitor.

Q: Which EC50 does the source give for C=C(C)[C@@H]1CC[C@]2(NCCN3CCS(=O)(=O)CC3)CC[C@]3(C)[C@H](CC[C@@H]4[C@@]5(C)CC=C(C6=CCC(CCO)(C(=O)O)CC6)C(C)(C)[C@@H]5CC[C@]43C)[C@@H]12 (stereo partly drawn) [Example A10, 4-((1R,3aS,5aR,5bR,7aR,11aS,11bR,13aR,13bR)-3a-((2-(1,1-dioxidothiomorpholino)ethyl)amino)-5a,5b,8,8,11a-pentamethyl-1-(prop-1-en-2-yl)-2,3,3a,4,5,5a,5b,6,7,7a,8,11,11a,11b,12,13,13a,13b-octadecahydro-1H-cyclopenta[a]chrysen-9-yl)-1-(2-hydroxyethyl)cyclohex-3-enecarboxylic acid] here?
A: 4.86 nM

Q: For C=C(C)[C@@H]1CC[C@]2(NCCN3CCC(S(C)(=O)=O)CC3)CC[C@]3(C)[C@H](CC[C@@H]4[C@@]5(C)CC=C(C6=CCC(F)(C(=O)O)CC6)C(C)(C)[C@@H]5CC[C@]43C)[C@@H]12 (stereo partly drawn) [Example A9, 1-fluoro-4-((1R,3aS,5aR,5bR,7aR,11aS,11bR,13aR,13bR)-5a,5b,8,8,11a-pentamethyl-3a-((2-(4-(methylsulfonyl)piperidin-1-yl)ethyl)amino)-1-(prop-1-en-2-yl)-2,3,3a,4,5,5a,5b,6,7,7a,8,11,11a,11b,12,13,13a,13b-octadecahydro-1H-cyclopenta[a]chrysen-9-yl)cyclohex-3-enecarboxylic acid], which EC50 is on record?
A: 2.84 nM

Q: Which EC50 does the source give for C=C(C)[C@@H]1CC[C@]2(CNCCCN3CCS(=O)(=O)CC3)CC[C@]3(C)[C@H](CC[C@@H]4[C@@]5(C)CC=C(C6=CC7(C6)CC(C(=O)O)(C(=O)O)C7)C(C)(C)[C@@H]5CC[C@]43C)[C@@H]12 [Example A14, 6-((1R,3aS,5aR,5bR,7aR,11aS,11bR,13aR,13bR)-3a-(((3-(1,1-dioxidothiomorpholino)propyl)amino)methyl)-5a,5b,8,8,11a-pentamethyl-1-(prop-1-en-2-yl)-2,3,3a,4,5,5a,5b,6,7,7a,8,11,11a,11b,12,13,13a,13b-octadecahydro-1H-cyclopenta[a]chrysen-9-yl)spiro[3.3]hept-5-ene-2,2-dicarboxylic acid] here?
A: 190 nM

Q: How did the EC50 turn out when CC(C)[C@@H]1CC[C@]2(NCCN3CCS(=O)(=O)CC3)CC[C@]3(C)[C@H](CC[C@@H]4[C@@]5(C)CC=C(C6CC7(C6)CC(C(=O)O)(C(=O)O)C7)C(C)(C)[C@@H]5CC[C@]43C)[C@@H]12 [Example 5, 6-((1S,3aS,5aR,5bR,7aR,11aS,11bR,13aR,13bR)-3a-((2-(1,1-dioxidothiomorpholino)ethyl)amino)-1-isopropyl-5a,5b,8,8,11a-pentamethyl-2,3,3a,4,5,5a,5b,6,7,7a,8,11,11a,11b,12,13,13a,13b-octadecahydro-1H-cyclopenta[a]chrysen-9-yl)spiro[3.3]heptane-2,2-dicarboxylic acid, TFA] was run?
A: 40 nM

Q: Which EC50 does the source give for C=C(C)[C@@H]1CC[C@]2(NCCN3CCS(=O)(=O)CC3)CC[C@]3(C)[C@H](CC[C@@H]4[C@@]5(C)CC=C(C6=CCC(CC(=O)O)CC6)C(C)(C)[C@@H]5CC[C@]43C)[C@@H]12 (stereo partly drawn) [Example A25, 2-(4-((1R,3aS,5aR,5bR,7aR,11aS,11bR,13aR,13bR)-3a-((2-(1,1-dioxidothiomorpholino)ethyl)amino)-5a,5b,8,8,11a-pentamethyl-1-(prop-1-en-2-yl)-2,3,3a,4,5,5a,5b,6,7,7a,8,11,11a,11b,12,13,13a,13b-octadecahydro-1H-cyclopenta[a]chrysen-9-yl)cyclohex-3-en-1-yl)acetic acid] here?
A: 1.31 nM

Q: Which EC50 does the source give for C=C(C)[C@@H]1CC[C@]2(NCCN3CCN(S(C)(=O)=O)CC3)CC[C@]3(C)[C@H](CC[C@@H]4[C@@]5(C)CC=C(C6=CCC(C(=O)O)CC6)C(C)(C)[C@@H]5CC[C@]43C)[C@@H]12 (stereo partly drawn) [Example 12, 4-((1R,3aS,5aR,5bR,7aR,11aS,11bR,13aR,13bR)-5a,5b,8,8,11a-pentamethyl-3a-((2-(4-(methylsulfonyl)piperazin-1-yl)ethyl)amino)-1-(prop-1-en-2-yl)-2,3,3a,4,5,5a,5b,6,7,7a,8,11,11a,11b,12,13,13a,13b-octadecahydro-1H-cyclopenta[a]chrysen-9-yl)cyclohex-3-enecarboxylic acid, TFA] here?
A: 3.03 nM

Q: For C=C(C)[C@@H]1CC[C@]2(NCCN3CCS(=O)(=O)CC3)CC[C@]3(C)[C@H](CC[C@@H]4[C@@]5(C)CC=C(C6=CCC(C(F)(F)C(=O)O)C6)C(C)(C)[C@@H]5CC[C@]43C)[C@@H]12 (single isomer, unassigned) [Example A24], which EC50 is on record?
A: 4.65 nM

Q: Which EC50 does the source give for C=C(C)[C@@H]1CC[C@]2(NCCN3CCS(=O)(=O)CC3)CC[C@]3(C)[C@H](CC[C@@H]4[C@@]5(C)CC=C(C6=CCC(C(=O)O)CC6)C(C)(C)[C@@H]5CC[C@]43C)[C@@H]12 (stereo partly drawn) [Example 4, 4-((1R,3aS,5aR,5bR,7aR,11aS,11bR,13aR,13bR)-3a-((2-(1,1-dioxidothiomorpholino)ethyl)amino)-5a,5b,8,8,11a-pentamethyl-1-(prop-1-en-2-yl)-2,3,3a,4,5,5a,5b,6,7,7a,8,11,11a,11b,12,13,13a,13b-octadecahydro-1H-cyclopenta[a]chrysen-9-yl)cyclohex-3-enecarboxylic acid, TFA] here?
A: 0.659 nM

Q: Which EC50 does the source give for C=C(C)[C@@H]1CC[C@]2(NCCN3CCC(S(C)(=O)=O)CC3)CC[C@]3(C)[C@H](CC[C@@H]4[C@@]5(C)CC=C(C6=CCC(CCO)(C(=O)O)CC6)C(C)(C)[C@@H]5CC[C@]43C)[C@@H]12 (mixture of isomers) [Example A11] here?
A: 2.65 nM

Q: Which EC50 does the source give for C=C(C)[C@@H]1CC[C@]2(NCCN3CCS(=O)(=O)CC3)CC[C@]3(C)[C@H](CC[C@@H]4[C@@]5(C)CC=C(C6=CCC(NC(C)=O)(C(=O)O)CC6)C(C)(C)[C@@H]5CC[C@]43C)[C@@H]12 (stereo partly drawn) [Example A31, 1-acetamido-4-((1R,3aS,5aR,5bR,7aR,11aS,11bR,13aR,13bR)-3a-((2-(1,1-dioxidothiomorpholino)ethyl)amino)-5a,5b,8,8,11a-pentamethyl-1-(prop-1-en-2-yl)-2,3,3a,4,5,5a,5b,6,7,7a,8,11,11a,11b,12,13,13a,13b-octadecahydro-1H-cyclopenta[a]chrysen-9-yl)cyclohex-3-enecarboxylic acid] here?
A: 10 nM

Q: For C=C(C)[C@@H]1CC[C@]2(NCCN3CCC(S(C)(=O)=O)CC3)CC[C@]3(C)[C@H](CC[C@@H]4[C@@]5(C)CC=C(C6=CC[C@H](C(=O)O)CC6)C(C)(C)[C@@H]5CC[C@]43C)[C@@H]12 [Example 15, (R)-4-((1R,3aS,5aR,5bR,7aR,11aS,11bR,13aR,13bR)-5a,5b,8,8,11a-pentamethyl-3a-((2-(4-(methylsulfonyl)piperidin-1-yl)ethyl)amino)-1-(prop-1-en-2-yl)-2,3,3a,4,5,5a,5b,6,7,7a,8,11,11a,11b,12,13,13a,13b-octadecahydro-1H-cyclopenta[a]chrysen-9-yl)cyclohex-3-enecarboxylic acid, TFA], which EC50 is on record?
A: 1.36 nM
